Laboratory results from US8435562B2 (XenoPort, Inc., priority 2009, dated 2013).

Test: Powder X-ray diffraction analysis of anhydrous-to-hydrate form conversion (granules, tablets)
Assay type: physicochemical
Method: Anhydrous (2R)-2-phenylcarbonyloxypropyl (2S)-2-amino-3-(3,4-dihydroxyphenyl)propanoate mesylate (138.6 g) and hydroxypropylmethyl cellulose (1.4 g) (Methocer HPMC E4M, Dow Chemical) were weighed and sieved through an 18-mesh screen. The screened materials were placed into a high shear wet granulator (KG-5 high sheer blender, 5 L bowl, Key International) and pre-blended for 2 min. […] The material was blended for ca. 10-20 min at an impeller speed of 250 rpm and a chopper speed of 2,000 rpm, and a water spray rate of 2 g/min. After granulation the wet granules were milled through a 16-mesh screen with a brush. The milled wet granules were placed in a dryer (UniGlatt Fluid Bed Dryer, Glatt GmbH) and dried for 24 min at an inlet temperature of 65° C. with airflow adjusted at 8-10 SCFM. The dried granules were milled by manually pressing the granules through a screen.
Powder X-ray diffraction (PXRD) analysis was performed using a PANalytical X′Pert Pro X-ray diffractometer. The X-ray source was Cu kα1 with output voltage of 45 kV and current of 40 mA. The instrument employed para-focusing Bragg-Brentano geometry with incident divergence and scattering slits set at 1/16° and ⅛°, respectively. Soller slits with a 0.04-mm radius were used for both the incident and diffracted beams to remove axial divergence. Powder samples (9-12 mg) were gently pressed onto a single crystal silicon sample holder to form a smooth surface, and samples were spun at 8 sec/revolution throughout the data acquisition process. The samples were scanned from 2° to 40°(2θ°) with a step size of 0.017° (2θ angle) and a scan speed of 0.067°/sec. Data acquisition was controlled and analyzed with X′Pert Data Collector Software (version 2.2d) and X′Pert Data Viewer (version 1.2c), respectively.

In the case of `CS(=O)(=O)O.C[C@H](COC(=O)[C@@H](N)Cc1ccc(O)c(O)c1)OC(=O)c1ccccc1` [compound 1, (2R)-2-Phenylcarbonyloxypropyl (2S)-2-amino-3-(3,4-dihydroxyphenyl)propanoate mesylate], the “Crystal form by PXRD after high shear wet granulation” value (“Crystal form by PXRD” below) (with 1% sodium lauryl sulfate) is reported as “did not transform to the hydrate”, the “Crystal form by PXRD” value (without sodium lauryl sulfate, 7 wt-% water) is reported as “a combination of the anhydrous and hydrated forms” and the “Crystal form by PXRD” value (without sodium lauryl sulfate, 15 wt-% water) is reported as “predominantly crystalline (2R)-2-phenylcarbonyloxypropyl (2S)-2-amino-3-(3,4-dihydroxyphenyl)propanoate mesylate, hydrate”. For the same compound, the “Crystal form by PXRD” value (without sodium lauryl sulfate, water content of 9 wt-% and 15 wt-% (FIG. 3 patterns B and C)) was “characteristic of the hydrated form”.
